The text below walks through data of patent US8722649B2, “Alpha-chloro and alpha-bromo phosphonate analogs of lysophosphatidic acid and methods of making and using thereof” (University of Utah Research Foundation, priority 2007, dated 2014).

“Also recorded” adds a separate entry of the source. Read-outs that look alike come from different tables or passages of the source. A value given as a limit tells only on which side of the number the result lay.

What all share (type): cell-based
In one experiment the target is T1, human LPA2 (Homo sapiens, UniProt Q9HBW0).
T1 construct: expressed in transfected cells
T1 sequence (Q9HBW0 whole entry): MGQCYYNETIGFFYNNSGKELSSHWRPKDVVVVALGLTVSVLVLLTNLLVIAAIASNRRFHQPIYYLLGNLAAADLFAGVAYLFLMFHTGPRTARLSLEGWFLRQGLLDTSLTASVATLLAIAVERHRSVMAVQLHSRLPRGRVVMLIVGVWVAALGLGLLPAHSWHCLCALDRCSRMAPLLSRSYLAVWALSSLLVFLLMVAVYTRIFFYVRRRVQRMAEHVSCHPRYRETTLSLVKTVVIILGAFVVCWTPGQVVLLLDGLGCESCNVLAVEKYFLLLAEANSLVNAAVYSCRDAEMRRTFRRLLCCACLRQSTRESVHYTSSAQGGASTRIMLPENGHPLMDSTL
Kind of experiment: Ca2+ mobilization assay, LPA2. Conditions: for EC50: RH7777 cells stably expressing LPA2, agonist mode; for LPA2 (Emax): Emax = (maximal efficacy of compound/maximal efficacy of LPA 18:1) × 100; for LPA2 ligand type: agonist/antagonist in words. Here is the method:
(§1) Receptor activation using Ca^2+ mobilization assay for diastereomers of 1 (also represented as 19b). The rat hepatoma (RH7777) cell lines individually expressing either LPA1, LPA2, LPA3 or LPA5 receptors and Chinese hamster ovary (CHO) cell line were analyzed to examine agonism and antagonism. […] CHO cells stably expressing either vector or LPA4 were kindly gifted from Dr. Shimizu (University of Tokyo, Tokyo, Japan).
Stable transformants of LPA1/2/3 receptors. RH7777 cells stably expressing each receptor were plated onto poly-L-lysine (PLL) (0.1 mg/mL)-coated black-wall clear-bottom 96-well plates (Corning Incorporated Life Sciences, Acton, Mass.) at a density of 5×10^4 cells/well and cultured overnight. The following day, the culture medium was replaced with modified Krebs buffer (120 mM NaCl, 5 mM KCl, 0.62 mM MgSO4, 1.8 mM CaCl2, 10 mM HEPES, 6 mM glucose, pH 7.4), and the cells were serum starved for 6 h. Subsequently, cells were loaded with Fura-2 AM (Invitrogen, Carlsbad, Calif.) for 35 min in modified Krebs buffer containing 2% (v/v) pluronic acid.
(§2) After incubating the cells with Fura-2 AM, the cells were rinsed with Krebs buffer and changes in the intracellular Ca^2+ concentration were monitored by determining the ratio of emitted light intensities at 520 nm in response to excitation at 340 and 380 nm using FLEXstation II (Molecular Devices, Sunnyvale, Calif.). Each well was monitored for 80-120 sec. For testing agonist activity of the compounds, the test compounds were added automatically after 15 sec of baseline measurement. […] Each test was performed in quadruplicate. EC50, IC50, and Ki values were calculated by fitting a sigmoid function to data points with the nonlinear curve-fitting feature of KaleidaGraph (Synergy Software, Essex Junction, Vt.).
(§3) Receptor activation using Ca^2+ mobilization assay. The assay for mobilization of intracellular Ca^2+ was performed as described. Briefly, rat hepatoma RH7777 cells stably expressing human LPA1, LPA2, or LPA3, and CHO cells stably expressing LPA4, were loaded with Fura-2 AM (Molecular Probes). Using a FLEXStation (Molecular Devices, Sunnyvale, Calif.), changes in intracellular Ca^2+ concentration were monitored. Ligand-induced changes in fluorescence were monitored for 80-120 seconds. Ca^2+ transients were quantified automatically by calculating the difference between maximum and baseline ratio values for each sample. […] Each test was performed in quadruplicate. EC50, IC50, and Ki values were calculated as described. The ligand properties of the compounds were evaluated using Ca^2+ mobilization assay for assessing the activation/inhibition of LPA1, LPA2, and LPA3 expressed in RH7777 cells and LPA4 expressed in CHO cells.
In general terms: Calcium assays in cells follow changes in intracellular calcium, usually with a dye or a luminescent sensor.

The target in a further experiment is T2, human LPA4 (Homo sapiens, UniProt Q99677).
T2 construct: expressed in transfected cells
T2 sequence (Q99677 whole entry): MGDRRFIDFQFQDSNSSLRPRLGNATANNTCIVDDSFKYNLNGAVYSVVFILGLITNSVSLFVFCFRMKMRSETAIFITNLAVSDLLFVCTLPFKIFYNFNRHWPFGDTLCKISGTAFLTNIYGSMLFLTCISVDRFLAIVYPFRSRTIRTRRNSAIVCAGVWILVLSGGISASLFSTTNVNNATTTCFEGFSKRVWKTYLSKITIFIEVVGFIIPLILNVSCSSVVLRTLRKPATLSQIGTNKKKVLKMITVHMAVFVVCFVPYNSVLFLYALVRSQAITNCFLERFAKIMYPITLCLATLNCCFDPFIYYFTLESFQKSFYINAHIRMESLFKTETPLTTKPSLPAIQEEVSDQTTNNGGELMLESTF
The experiment can be described thus: Ca2+ mobilization assay, LPA4 in CHO cells. Conditions: for EC50: CHO cells stably expressing LPA4, agonist mode; for inhibition at 30 µM: CHO, at 30 μM (400 nM LPA), read-out: LPA4 Inhibition; for LPA4 (Emax): Emax = (maximal efficacy of compound/maximal efficacy of LPA 18:1) × 100; for LPA4 ligand type: agonist/antagonist in words. As to the method:
as §1
Stable transformants of LPA4. CHO cells stably expressing either vector or LPA4 were plated on non-coated 96 well plates at a density of 4×10^4 cells/well and cultured overnight. The following day, cells were loaded with Fura-2 AM for 1 h in modified Krebs buffer containing 2% (v/v) pluronic acid and 2.5 mM probenecid.
as §2, §3

The target of another experiment is T3, human LPA5 (Homo sapiens, UniProt Q9H1C0).
T3 construct: expressed in transfected cells; host or cells: rat hepatoma RH7777 cells, transient (Effectene)
T3 sequence (Q9H1C0 whole entry): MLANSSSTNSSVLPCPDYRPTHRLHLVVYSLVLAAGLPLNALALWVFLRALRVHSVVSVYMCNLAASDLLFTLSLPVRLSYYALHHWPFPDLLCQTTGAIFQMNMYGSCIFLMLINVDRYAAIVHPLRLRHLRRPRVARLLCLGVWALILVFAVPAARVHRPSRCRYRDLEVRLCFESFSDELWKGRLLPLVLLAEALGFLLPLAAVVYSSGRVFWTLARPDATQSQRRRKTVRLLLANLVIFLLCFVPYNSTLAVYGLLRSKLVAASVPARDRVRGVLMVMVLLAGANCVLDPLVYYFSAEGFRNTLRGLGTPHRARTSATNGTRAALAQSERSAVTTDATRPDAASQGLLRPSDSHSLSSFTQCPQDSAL
Kind of experiment: Ca2+ mobilization assay, LPA5 transiently transfected RH7777 cells. Conditions: for Emax at 10 µM: RH7777; for LPA5 ligand type: agonist/antagonist in words. Here is the method:
as §1
Transient transfection of LPA5. RH7777 cells in a 10-cm dish at a density of 2×10^6/dish were transfected with 2 μg of plasmid DNA with Effectene (Qiagen, Valencia, Calif.) according to the manufacturer's instructions for 24 h, then replated onto PLL-coated 96-well plates at a density of 5×10^4 cells/well and cultured overnight. The following day, the culture medium was then replaced with modified Krebs buffer, and the cells were serum starved for 4 h. Subsequently, cells were loaded with Fura-2 AM for 30 min in modified Krebs buffer containing 2% (v/v) pluronic acid.
After incubating the cells with Fura-2 AM, the cells were rinsed with Krebs buffer and changes in the intracellular Ca^2+ concentration were monitored by determining the ratio of emitted light intensities at 520 nm in response to excitation at 340 and 380 nm using FLEXstation II (Molecular Devices, Sunnyvale, Calif.). Each well was monitored for 80-120 sec. For testing agonist activity of the compounds, the test compounds were added automatically after 15 sec of baseline measurement. To determine antagonist properties, varying concentrations of the compounds were mixed with a constant concentration of LPA and responses were monitored. Each test was performed in quadruplicate. EC50, IC50, and Ki values were calculated by fitting a sigmoid function to data points with the nonlinear curve-fitting feature of KaleidaGraph (Synergy Software, Essex Junction, Vt.).

Setting [1] is: antagonist mode vs 10 nM LPA, PA = partial antagonist, read-out: LPA2 IC50.
Setting [2] is: antagonist mode vs 10 nM LPA, read-out: LPA2 (Ki).
The mark [3] stands for this setting: diastereomer study, RH7777 cells, read-out: LPA2 IC50 (Table 2).
Where [4] appears, read: diastereomer study, RH7777 cells, read-out: LPA2 Ki (Table 2).
The mark [5] stands for this setting: transiently transfected RH7777 cells.

What is called EC50 is the midpoint of the concentration-response curve. Usually IC50 stands for the point on the concentration scale where inhibition reaches its midpoint. Usually Ki stands for a dissociation constant, usually derived from enzyme kinetics or from competition with a known ligand. By inhibition is commonly meant the share of the control response that was lost under treatment. As usually defined, the Emax is the size of the effect at its maximum, as opposed to the concentration needed.

Consider `CCCCCCCCCCCCCCCC(=O)OC[C@@H](O)CC(Br)P(=O)(O)O` (mixture of isomers) [Compound 1, [1-Bromo-3(S)-hydroxyl-4-(palmitoyloxy)butyl]-phosphonate], for which the concentration for a half-maximal effect (EC50) at human LPA2 was above 30 µM; on human LPA4, above 30 µM; on human LPA5 (transiently transfected RH7777 cells, NS = non-saturated), 1.28 µM. The figures for the IC50 on human LPA2 (setting [1]), at human LPA2 (setting [3]) and on human LPA4 were 1.42 ± 0.083 µM, 0.468 µM and 0.266 µM, respectively. For the same compound, the inhibition constant Ki came out at 0.304 µM on human LPA2 (setting [2]), 0.245 µM on human LPA2 (setting [4]) and 0.167 µM on human LPA4 (antagonist mode vs 400 nM LPA). The inhibition at 30 µM on human LPA4 is 13.9%. Besides, the Emax at 10 µM at human LPA5 is 54%.
Take `CCCCCCCCC=CCCCCCCCC(=O)OCC(O)CC(O)P(=O)([O-])O.[Na+]` (mixture of isomers) [Compound 22a, reference compound]: on human LPA2, the “LPA2 (Emax)” value is given as “(71.9 ± 6.0)” and the EC50 was above 2.16 µM. Further, at human LPA4, the EC50 is above 1.15 µM, the “LPA4 (Emax)” value is given as “(71.7 ± 2.0)” and the LPA4 ligand type entry is on record as “weak LPA4 agonists”.
Take `CCCCCCCCCCCCCCCC(=O)OC[C@@H](O)C[C@@H](Br)P(=O)(O)O` [Compound 1a]: the LPA2 ligand type result on human LPA2 is listed as “Antagonist”. Besides, on human LPA2 (setting [3]), the IC50 was found to be 0.288 µM. The Ki on human LPA2 (setting [4]) turned out to be 0.25 µM. At human LPA4, the inhibition at 30 µM worked out at 35.1% and the LPA4 ligand type entry is “Partial Antagonist”. Also, on human LPA5, the Emax at 10 µM worked out at 64% and the LPA5 ligand type result is on record as “Partial Agonist”.
Consider `CCCCCCCCCCCCCCCC(=O)OCC(O)CC(O)P(=O)([O-])O.[Na+]` (mixture of isomers) [Compound 22b, reference compound], for which the EC50 at human LPA2 and on human LPA4 was above 30 µM throughout.
Turning to `CCCCCCCCCCCCCCCC(=O)OC[C@@H](O)CCP(=O)([O-])O.[Na+]` [Compound 20b, reference compound], at human LPA2, the EC50 was above 30 µM. In addition, on human LPA2 (setting [1]), the IC50 was determined as 2.59 ± 0.875 µM. The Ki at human LPA2 (setting [2]) was 1.3 µM. For the same compound, on human LPA4, the EC50 is 5.4 ± 0.526 µM, the “LPA4 (Emax)” value is “(29.3 ± 1.1)” and the LPA4 ligand type entry is recorded as “weak LPA4 agonists”.
As to `CCCCCCCC/C=C\CCCCCCCC(=O)OCC(O)CCP(=O)(O)O` (stereo not drawn) [Compound 20a, reference compound], on human LPA2, the “LPA2 (Emax)” value is on record as “(94.7 ± 4.3)” and the EC50 was above 0.281 µM. At human LPA4, the EC50 came to 3.9 ± 0.104 µM, the “LPA4 (Emax)” value was “(110 ± 1.3)” and the LPA4 ligand type entry is listed as “weak LPA4 agonists”.
In the case of `CCCCCCCCCCCCCCCC(=O)OC[C@@H](O)C[C@H](Br)P(=O)(O)O` [Compound 1b], the LPA2 ligand type result at human LPA2 is “Antagonist”. In addition, the IC50 at human LPA2 (setting [3]) was determined as 0.275 µM; on human LPA5 (setting [5]), 0.977 µM. For the same compound, the Ki was 0.241 µM at human LPA2 (setting [4]) and 0.376 µM at human LPA5 (setting [5]). In addition, the inhibition at 30 µM on human LPA4 amounted to 33.1%. Further, the LPA4 ligand type entry at human LPA4 was “Partial Antagonist”. For the same compound, the LPA5 ligand type result on human LPA5 is listed as “showed inhibition of LPA5; also recorded: Antagonist”.
Regarding `CCCCCCCCCCCCCCCC(=O)OCC(O)COP(=O)(O)O` (stereo not drawn) [LPA (16:0), reference compound], on human LPA2, the “LPA2 (Emax)” value is listed as “(100.3 ± 1.9)” and the concentration for a half-maximal effect (EC50) came out at 0.0551 ± 0.0043 µM. Besides, on human LPA4, the EC50 came to 0.843 ± 0.13 µM and the “LPA4 (Emax)” value is recorded as “(102.4 ± 4.1)”.
